Measurements from US20050148646A1, “Dicationic triaryl analogs as anti-protozoan agents” (priority 2003, published 2005).
Structures can show the parent of a compound that is named as a salt. Where two headings read alike, the source gives them in different places.

What was measured:
[1] = test system: Trypanosoma brucei rhodesiense (T.b.r.); experiment: In vitro activity vs. T. b. rhodesiense; format: cell-based
[2] = test system: Plasmodium falciparum (P.f.); experiment: In vitro activity vs. P. falciparum; format: cell-based
[3] = test system: virulent STIP900 strain of T.b.r.; experiment: Mouse model of T.b.r. infection; format: in vivo
[4] = read-out: IC-50 values versus Plasmodium falciparum (p.f.)
[5] = read-out: IC-50 values versus Trypanosoma brucei rhodesiense (T.b.r.)

Compound	IC50 ([1]; Table 1, read-out: T.b.r. IC50) [nM]	IC50 ([2]; Table 1, read-out: P.f. IC50) [nM]	melting point	further results
N=C(N)c1ccc(-c2ccc(O)c(-c3nc4cc(C(=N)N)ccc4[nH]3)c2)cc1 [Compound 4, 2-(4′-carbamimidoyl-4-hydroxy-biphenyl-3-yl)-1H-benzimidazole-5-carboxamidine acetate salt]	27	2.1	–	IC50 [2, 4]: < 3 nM
N=C(NO)c1cccc(-c2ccc(O)c(-c3nc4cc(C(=N)NO)ccc4[nH]3)c2)c1 [Compound 7, N-hydroxy-2-[4-hydroxy-3′-(N-hydroxycarbamimidoyl)-biphenyl-3-yl]-1H-benzimidazole-5-carboxamidine]	–	–	352 to 355 °C	–
CC(=O)O.N=C(N)c1cccc(-c2ccc(O)c(-c3nc4cc(C(=N)N)ccc4[nH]3)c2)c1 [Compound 8, 2-(3′-carbamimidoyl-4-hydroxy-biphenyl-3-yl)-1H-benzimidazole-5-carboxamidine acetate salt]	213	34	208 to 209 °C (dec.)	–
COc1cc(-c2ccc(C(=N)NO)cc2)cc(-c2nc3cc(C(=N)NO)ccc3[nH]2)c1O [Compound 11, N-hydroxy-2-[4-hydroxy-4′-(N-hydroxycarbamimidoyl)-5-methoxy-biphenyl-3-yl]-1H-benzimidazole-5-carboxamidine]	–	–	319 to 321 °C	–
CC(=O)O.COc1cc(-c2ccc(C(=N)N)cc2)cc(-c2nc3cc(C(=N)N)ccc3[nH]2)c1O [Compound 12, 2-(4′-carbamimidoyl-4-hydroxy-5-methoxy-biphenyl-3-yl)-1H-benzimidazole-5-carboxamidine acetate salt]	31	131	230 to 231 °C (dec.)	–
N=C(NO)c1ccc(-c2cccc(-c3nc4cc(C(=N)NO)ccc4[nH]3)c2O)cc1 [Compound 15, N-hydroxy-2-[2-hydroxy-4′-(N-hydroxycarbamimidoyl)-biphenyl-3-yl]-1H-benzimidazole-5-carboxamidine]	–	–	322 to 325 °C (dec.)	–
CC(=O)O.N=C(N)c1ccc(-c2cccc(-c3nc4cc(C(=N)N)ccc4[nH]3)c2O)cc1 [Compound 16, 2-(4′-carbamimidoyl-2-hydroxy-biphenyl-3-yl)-1H-benzimidazole-5-carboxamidine acetate salt]	17	131	228 to 229.5 °C (dec.)	IC50 [1, 5]: < 20 nM; cure of the virulent STIP900 strain of T.b.r. in a mouse model [3]: cure
COc1ccc(-c2ccc(C(=N)NO)cc2)cc1-c1nc2cc(C(=N)NO)ccc2[nH]1 [Compound 19, N-hydroxy-2-[4′-(N-hydroxycarbamimidoyl)-4-methoxy-biphenyl-3-yl]-1H-benzimidazole-5-carboxamidine]	–	–	> 340 °C	–
CC(=O)O.COc1ccc(-c2ccc(C(=N)N)cc2)cc1-c1nc2cc(C(=N)N)ccc2[nH]1 [Compound 20, 2-(4′-carbamimidoyl-4-methoxy-biphenyl-3-yl)-1H-benzimidazole-5-carboxamidine acetate salt]	53	40	220 to 221 °C	–
N=C(NO)c1ccc(-c2cccc(-c3nc4cc(C(=N)NO)ccc4[nH]3)c2)cc1 [Compound 23, N-hydroxy-2-[4′-(N-hydroxycarbamimidoyl)-biphenyl-3-yl]-1H-benzimidazole-5-carboxamidine]	–	–	317 to 319 °C	–
N=C(N)c1ccc(-c2cccc(-c3nc4cc(C(=N)N)ccc4[nH]3)c2)cc1 [Compound 24, 2-(4′-carbamimidoyl-biphenyl-3-yl)-1H-benzimidazole-5-carboxamidine acetate salt]	4.4	27.5	–	IC50 [1, 5]: < 20 nM
Cc1cc(C(=N)NO)ccc1-c1cccc(-c2nc3cc(C(=N)NO)ccc3[nH]2)c1 [Compound 27, N-hydroxy-2-[4′-(N-hydroxycarbamimidoyl)-2′-methyl-biphenyl-3-yl]-1H-benzimidazole-5-carboxamidine]	–	–	295 to 297 °C (dec.)	–
CC(=O)O.Cc1cc(C(=N)N)ccc1-c1cccc(-c2nc3cc(C(=N)N)ccc3[nH]2)c1 [Compound 28, 2-(4′-carbamimidoyl-2′-methyl-biphenyl-3-yl)-1H-benzimidazole-5-carboxamidine acetate salt]	23	55	201 to 203 °C	–
N=C(NO)c1ccc(-c2ccc(-c3nc4cc(C(=N)NO)ccc4[nH]3)c(F)c2)cc1 [Compound 31, 2-[3-fluoro-4′-(N-hydroxycarbamimidoyl)-biphenyl-4-yl]-N-hydroxy-1H-benzimidazole-5-carboxamidine]	–	–	281 to 283 °C (dec.)	–
CC(=O)O.N=C(N)c1ccc2[nH]c(-c3ccc(-c4ccc(C(=N)N)c(F)c4)cc3)nc2c1 [Compound 32, 2-(4′-carbamimidoyl-3′-fluoro-biphenyl-4-yl)-1H-benzimidazole-5-carboxamidine acetate salt]	–	–	210 to 212 °C (dec.)	IC50 ([1]; Table 2, read-out: T.b.r. IC50): 35 nM; IC50 ([2]; Table 2, read-out: P.f. IC50): 1.3 nM; IC50 [2, 4]: < 3 nM
CC(=O)O.COc1ccc(-c2ccc(C(=N)N)cn2)cc1-c1nc2cc(C(=N)N)ccc2[nH]1 [Compound 36, 2-[5-(5-carbamimidoyl-pyridin-2-yl)-2-methoxyphenyl]-1H-benzimidazole-5-carboxamidine acetate salt]	14	364	231 to 232 °C (dec.)	IC50 [1, 5]: < 20 nM
N=C(NO)c1ccc(-c2cccc(-c3nc4cc(C(=N)NO)ccc4[nH]3)c2)nc1 [Compound 39, N-hydroxy-2-{3-[5-(N-hydroxycarbamimidoyl)-pyridin-2-yl]-phenyl}-1H-benzimidazole-5-carboxamidine]	–	–	295 to 297 °C (dec.)	–
CC(=O)O.N=C(N)c1ccc(-c2cccc(-c3nc4cc(C(=N)N)ccc4[nH]3)c2)nc1 [Compound 40, 2-[3-(5-Carbamimidoyl-pyridin-2-yl)-phenyl]-1H-benzimidazole-5-carboxamidine acetate salt]	15	96	198 to 200 °C (dec.)	IC50 [1, 5]: < 20 nM; cure of the virulent STIP900 strain of T.b.r. in a mouse model [3]: cure
N=C(NO)c1ccc(-c2ccc(-c3nc4cc(C(=N)NO)ccc4[nH]3)cc2)nc1 [Compound 43, N-hydroxy-2-{4-[5-(N-hydroxycarbamimidoyl)-pyridin-2-yl]-phenyl}-1H-benzimidazole-5-carboxamidine]	–	–	305 to 308 °C (dec.)	–
CC(=O)O.N=C(N)c1ccc(-c2ccc(-c3nc4cc(C(=N)N)ccc4[nH]3)cc2)nc1 [Compound 44, 2-[4-(5-carbamimidoyl-pyridin-2-yl)-phenyl]-1H-benzimidazole-5-carboxamidine acetate salt]	–	–	240 to 241 °C	IC50 ([1]; Table 2, read-out: T.b.r. IC50): 41 nM; IC50 ([2]; Table 2, read-out: P.f. IC50): 7 nM
N=C(NO)c1ccc(-c2ccc(-c3nc4cc(C(=N)NO)ccc4[nH]3)cc2)c(OCc2ccccc2)c1 [Compound 47, 2-[2′-benzyloxy-4′-(N-hydroxycarbamimidoyl)-biphenyl-4-yl]-N-hydroxy-1H-benzimidazole-5-carboxamidine]	–	–	250 to 253 °C (dec.)	–
CC(=O)O.N=C(N)c1ccc(-c2ccc(-c3nc4cc(C(=N)N)ccc4[nH]3)cc2)c(O)c1 [Compound 48, 2-(4′-carbamimidoyl-2′-hydroxy-biphenyl-4-yl)-1H-benzimidazole-5-carboxamidine acetate salt]	–	–	220 to 222 °C	IC50 ([1]; Table 2, read-out: T.b.r. IC50): 27 nM; IC50 ([2]; Table 2, read-out: P.f. IC50): 19.1 nM
Cc1cc(C(=N)NO)ccc1-c1ccc(-c2nc3cc(C(=N)NO)ccc3[nH]2)cc1 [Compound 51, N-hydroxy-2-[4′-(N-hydroxycarbamimidoyl)-2′-methyl-biphenyl-4-yl]-1H-benzimidazole-5-carboxamidine]	–	–	300 to 302 °C	–
CC(=O)O.Cc1cc(C(=N)N)ccc1-c1ccc(-c2nc3cc(C(=N)N)ccc3[nH]2)cc1 [Compound 52, 2-(4′-carbamimidoyl-2′-methylbiphenyl-4-yl)-1H-benzimidazole-5-carboxamidine acetate salt]	–	–	193 to 195 °C	IC50 ([1]; Table 2, read-out: T.b.r. IC50): 6 nM; IC50 [1, 5]: < 20 nM
N=C(N)c1ccc(-c2ccc(-c3nc4ccc(C(=N)N)cc4[nH]3)cc2)cc1 [Compound 56]	–	–	–	IC50 ([1]; Table 2, read-out: T.b.r. IC50): 7.7 nM; IC50 [1, 5]: < 20 nM; IC50 ([2]; Table 2, read-out: P.f. IC50): 0.5 nM; IC50 [2, 4]: < 3 nM
